Results from PubChem BioAssay AID328 (DTP/NCI, 2004).
Where “and” joins values, the source holds several entries; their conditions need not be identical. Identical values can stand only once. Toxic doses and inconclusive results are not listed.

System: BDF1 mice, P388 leukemia ip, median survival T/C
Assay: NCI In Vivo Anticancer Drug Screen. Data for tumor model P388 Leukemia (intraperitoneal) in B6D2F1 (BDF1) mice
Conditions: endpoint: median survival time, higher = longer survival
How it was run: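 Steps: implant the tumour, treat one group with compound and another with vehicle, record survival, then divide treated by control.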

[1] = dose: 2.5 mg/kg/injection, schedule: Q01DX009 (ip), vehicle: saline
[2] = dose: 25.0 mg/kg/injection, schedule: Q01DX009 (ip), vehicle: saline with Tween-80
[3] = dose: 50.0 mg/kg/injection, schedule: Q01DX009 (ip), vehicle: saline with Tween-80
[4] = dose: 100.0 mg/kg/injection, schedule: Q01DX009 (ip), vehicle: saline with Tween-80
[5] = dose: 200.0 mg/kg/injection, schedule: Q01DX009 (ip), vehicle: saline with Tween-80
[6] = dose: 50.0 mg/kg/injection, schedule: Q04DX003 (ip), vehicle: saline with Tween-80
[7] = dose: 100.0 mg/kg/injection, schedule: Q04DX003 (ip), vehicle: saline with Tween-80
[8] = dose: 200.0 mg/kg/injection, schedule: Q04DX003 (ip), vehicle: saline with Tween-80
[9] = dose: 400.0 mg/kg/injection, schedule: Q01DX009 (ip), vehicle: saline with Tween-80
[10] = dose: 100.0 mg/kg/injection, schedule: Q01DX009 (ip), vehicle: Klucel (hydroxypropylcellulose) (HPC)
[11] = dose: 100.0 mg/kg/injection, schedule: Q01DX001 (ip), vehicle: Klucel (hydroxypropylcellulose) (HPC)
[12] = dose: 200.0 mg/kg/injection, schedule: Q01DX001 (ip), vehicle: Klucel (hydroxypropylcellulose) (HPC)
[13] = dose: 400.0 mg/kg/injection, schedule: Q01DX001 (ip), vehicle: Klucel (hydroxypropylcellulose) (HPC)
[14] = dose: 25.0 mg/kg/injection, schedule: Q04DX003 (ip), vehicle: Klucel (hydroxypropylcellulose) (HPC)

## c1ccc([As+](c2ccccc2)(c2ccccc2)c2ccccc2)cc1
dose: 0.1 mg/kg/injection, schedule: Q04DX003 (ip), vehicle: saline
  T/C: 110 % of control
dose: 0.15 mg/kg/injection, schedule: Q01DX009 (ip), vehicle: saline
  T/C: 105 % of control
dose: 0.15 mg/kg/injection, schedule: Q04DX003 (ip), vehicle: saline
  T/C: 105 % of control
dose: 0.23 mg/kg/injection, schedule: Q01DX009 (ip), vehicle: saline
  T/C: 116 % of control
dose: 0.36 mg/kg/injection, schedule: Q04DX003 (ip), vehicle: saline
  T/C: 110 % of control
dose: 0.54 mg/kg/injection, schedule: Q01DX009 (ip), vehicle: saline
  T/C: 122 % of control
dose: 0.55 mg/kg/injection, schedule: Q04DX003 (ip), vehicle: saline
  T/C: 165 % of control
dose: 2.4 mg/kg/injection, schedule: Q01DX009 (ip), vehicle: saline
  T/C: 184 % of control
[1]
  T/C: 155 % of control
dose: 3.75 mg/kg/injection, schedule: Q01DX009 (ip), vehicle: saline
  T/C: 160 % of control and 161 % of control and 184 % of control
dose: 5.0 mg/kg/injection, schedule: Q04DX003 (ip), vehicle: saline
  T/C: 150 % of control and 160 % of control
dose: 5.6 mg/kg/injection, schedule: Q01DX009 (ip), vehicle: saline
  T/C: 121 % of control
dose: 5.63 mg/kg/injection, schedule: Q01DX009 (ip), vehicle: saline
  T/C: 165 % of control
dose: 7.5 mg/kg/injection, schedule: Q04DX003 (ip), vehicle: saline
  T/C: 150 % of control

## CCCCCCC(=O)/C=C/c1c(Cl)cccc1Cl
[2]
  T/C: 91 % of control
[3]
  T/C: 112 % of control
[4]
  T/C: 103 % of control and 108 % of control
[5]
  T/C: 116 % of control

## CC(C)(C)NCCC(O)c1cc(C(F)(F)F)nc2c(C(F)(F)F)cccc12 (configuration not stated)
[3]
  T/C: 105 % of control
[4]
  T/C: 104 % of control

## O=[N+]([O-])c1ccc(Cl)c2c([N+](=O)[O-])cccc12
[6]
  T/C: 104 % of control
[7]
  T/C: 109 % of control
[8]
  T/C: 109 % of control

## O=C(c1ccncc1)c1c(Cc2ccccc2)ccc2ccccc12
[3]
  T/C: 92 % of control
[4]
  T/C: 96 % of control
[5]
  T/C: 90 % of control
[9]
  T/C: 92 % of control

## CC(O)C#N (configuration not stated)
dose: 1.25 mg/kg/injection, schedule: Q01DX009 (ip), vehicle: saline
  T/C: 108 % of control
[1]
  T/C: 101 % of control
dose: 5.0 mg/kg/injection, schedule: Q01DX009 (ip), vehicle: saline
  T/C: 101 % of control

## Clc1ccc(Oc2ccc(N3C=Nc4ccc(Oc5ccc(Cl)cc5)cc4C3)cc2)cc1
dose: 100.0 mg/kg/injection, schedule: Q04DX003 (ip), vehicle: alcohol
  T/C: 100 % of control
dose: 200.0 mg/kg/injection, schedule: Q04DX003 (ip), vehicle: alcohol
  T/C: 100 % of control
dose: 400.0 mg/kg/injection, schedule: Q04DX003 (ip), vehicle: alcohol
  T/C: 95 % of control

## O=Cc1[nH]c(=O)[nH]c(=O)c1Br
[6]
  T/C: 112 % of control

## CC(C)=CCOc1ccc2ccc(=O)oc2c1
dose: 4.0 mg/kg/injection, schedule: Q01DX009 (ip), vehicle: Klucel (hydroxypropylcellulose) (HPC)
  T/C: 100 % of control
dose: 8.0 mg/kg/injection, schedule: Q01DX009 (ip), vehicle: Klucel (hydroxypropylcellulose) (HPC)
  T/C: 98 % of control
dose: 16.0 mg/kg/injection, schedule: Q01DX009 (ip), vehicle: Klucel (hydroxypropylcellulose) (HPC)
  T/C: 108 % of control
dose: 32.0 mg/kg/injection, schedule: Q01DX009 (ip), vehicle: Klucel (hydroxypropylcellulose) (HPC)
  T/C: 90 % of control

## O=c1c[n+](-c2ccccc2)[nH]o1
[10]
  T/C: 115 % of control
dose: 200.0 mg/kg/injection, schedule: Q01DX009 (ip), vehicle: Klucel (hydroxypropylcellulose) (HPC)
  T/C: 90 % of control

## CN1CC2OC2C2C1N2C#N (configuration not stated)
dose: 25.0 mg/kg/injection, schedule: Q01DX005 (ip), vehicle: saline
  T/C: 97 % of control
dose: 50.0 mg/kg/injection, schedule: Q01DX005 (ip), vehicle: saline
  T/C: 106 % of control
dose: 100.0 mg/kg/injection, schedule: Q01DX005 (ip), vehicle: saline
  T/C: 111 % of control
dose: 200.0 mg/kg/injection, schedule: Q01DX005 (ip), vehicle: saline
  T/C: 115 % of control

## CN(C)N=Nc1ccccc1Cl
[2]
  T/C: 119 % of control
[4]
  T/C: 157 % of control

## COc1ccc2c(c1)CC(=CO)CC2=O.COc1ccc2c(c1)CC/C(=C/O)C2=O.[Cu]
dose: 25.0 mg/kg/injection, schedule: Q04DX003 (ip), vehicle: saline with Tween-80
  T/C: 100 % of control
[6]
  T/C: 110 % of control
[7]
  T/C: 90 % of control

## CCC(C)P(=O)(N1CC1)N1CC1 (configuration not stated)
dose: 37.5 mg/kg/injection, schedule: Q04DX003 (ip), vehicle: saline
  T/C: 108 % of control

## Cn1c(=O)[nH]c2ccccc2c1=O
[11]
  T/C: 104 % of control
[12]
  T/C: 104 % of control
[13]
  T/C: 107 % of control

## O=C(NC1CCCCC1)N(c1ccccc1)c1nnc(-c2cccc([N+](=O)[O-])c2)s1
[3]
  T/C: 104 % of control
[4]
  T/C: 95 % of control
[5]
  T/C: 115 % of control

## O=C(Cn1ccc(O)cc1=O)c1ccco1
[4]
  T/C: 100 % of control
[7]
  T/C: 100 % of control
[5]
  T/C: 95 % of control
[8]
  T/C: 109 % of control
[9]
  T/C: 104 % of control
dose: 400.0 mg/kg/injection, schedule: Q04DX003 (ip), vehicle: saline with Tween-80
  T/C: 104 % of control

## COc1ccc(/C=C/C(=O)c2ccccc2)cc1Br
[4]
  T/C: 109 % of control
[5]
  T/C: 109 % of control
[9]
  T/C: 113 % of control

## Cc1ccc(C(=O)C2CN(C)CCC2(O)c2ccc(C)cc2)cc1 (configuration not stated)
[11]
  T/C: 90 % of control
[12]
  T/C: 110 % of control
[13]
  T/C: 90 % of control

## OCc1ccccc1Sc1ccccc1CO
[3]
  T/C: 91 % of control
[4]
  T/C: 100 % of control
[5]
  T/C: 99 % of control

## CCN1c2ccccc2CC(CCN(C)Cc2ccccc2)(C(N)=O)c2ccccc21 (configuration not stated)
[4]
  T/C: 101 % of control

## Nc1nc(=S)c2[nH]c(N=Nc3ccc(S(N)(=O)=O)cc3)nc2[nH]1
dose: 12.5 mg/kg/injection, schedule: Q04DX003 (ip), vehicle: Klucel (hydroxypropylcellulose) (HPC)
  T/C: 166 % of control
[14]
  T/C: 156 % of control

## CCCc1cc(CCC)nc(NNc2nc(CCC)cc(CCC)n2)n1
[4]
  T/C: 86 % of control
[5]
  T/C: 100 % of control
[9]
  T/C: 100 % of control

## O=C1CCCC(=O)C1C(C[N+](=O)[O-])c1ccccc1 (configuration not stated)
dose: 12.5 mg/kg/injection, schedule: Q01DX009 (ip), vehicle: Klucel (hydroxypropylcellulose) (HPC)
  T/C: 95 % of control and 100 % of control
dose: 25.0 mg/kg/injection, schedule: Q01DX009 (ip), vehicle: Klucel (hydroxypropylcellulose) (HPC)
  T/C: 97 % of control and 119 % of control
[14]
  T/C: 100 % of control
dose: 50.0 mg/kg/injection, schedule: Q01DX009 (ip), vehicle: Klucel (hydroxypropylcellulose) (HPC)
  T/C: 88 % of control
dose: 50.0 mg/kg/injection, schedule: Q04DX003 (ip), vehicle: Klucel (hydroxypropylcellulose) (HPC)
  T/C: 104 % of control
[10]
  T/C: 96 % of control and 110 % of control
dose: 100.0 mg/kg/injection, schedule: Q04DX003 (ip), vehicle: Klucel (hydroxypropylcellulose) (HPC)
  T/C: 108 % of control

## Oc1ccc(CNCCNCCNCc2ccc(O)cc2)cc1
dose: 12.5 mg/kg/injection, schedule: Q04DX003 (ip), vehicle: saline
  T/C: 100 % of control
dose: 25.0 mg/kg/injection, schedule: Q04DX003 (ip), vehicle: saline
  T/C: 107 % of control
dose: 50.0 mg/kg/injection, schedule: Q04DX003 (ip), vehicle: saline
  T/C: 109 % of control
dose: 100.0 mg/kg/injection, schedule: Q04DX003 (ip), vehicle: saline
  T/C: 100 % of control
dose: 200.0 mg/kg/injection, schedule: Q04DX003 (ip), vehicle: saline
  T/C: 105 % of control

## Nc1ccc(Cl)c(Cl)c1
[3]
  T/C: 98 % of control
dose: 50.0 mg/kg/injection, schedule: Q01DX009 (ip), vehicle: saline
  T/C: 106 % of control
[4]
  T/C: 104 % of control
dose: 100.0 mg/kg/injection, schedule: Q01DX009 (ip), vehicle: saline
  T/C: 118 % of control
[5]
  T/C: 104 % of control

## COC(=O)C12OCC34C(CC5C(C)=C(O)C(=O)CC5(C)C3C(O)C1O)OC(=O)C(O)C24 (configuration not stated)
dose: 5.0 micrograms/kg/injection, schedule: Q01DX009 (ip), vehicle: saline
  T/C: 100 % of control
dose: 10.0 micrograms/kg/injection, schedule: Q01DX009 (ip), vehicle: saline
  T/C: 109 % of control
dose: 20.0 micrograms/kg/injection, schedule: Q01DX009 (ip), vehicle: saline
  T/C: 118 % of control
